Where two headings read alike, the source gives them in different places. Each block holds one molecule with its values, some of them ahead of it.
Columns and labels:
Type in all cases: cell-based
Ba/F3‐FGFR1‐V561F [1] = experiment: Apoptosis assay by flow cytometry (Annexin V / 7-AAD)
Method: After incubation, cells were collected and washed twice with pre‐cold PBS. About 6 × 10^5 cells were resuspended in 100 μl of 1× BD binding buffer solution (#556454, BD), and then stained with 7‐ADD (#559925, BD) and Annexin V‐PE (#556422, BD) in the dark for 15 min. Finally, 400 μl of 1×BD binding buffer solution were added to stop dyeing. The cells were then measured on a Guava easyCyte flow cytometer (Merck, USA).

Ba/F3‐FGFR1 = experiment: CCK-8 proliferation assay in Ba/F3 stable cells; conditions: Mus musculus, read-out: IC50 (μΜ) Ba/F3‐FGFR1
Method: (§1) The Ba/F3 cell lines stably expressing FGFR1, FGFR1‐V561M, FGFR1‐V561F, FGFR1‐K656N, and FGFR1‐K656E were self‐established through electroporation pCDNA3.1‐TEL plasmids using the Amaxa Cell Line Nucleofector Kit V (Lonza, Cologne, Germany). Stable cell lines were selected by G418 (Merck, USA) and then withdrawal of IL‐3 (R&D). […] Parental Ba/F3 cells were maintained in RPMI 1640 supplemented with 10% FBS, 100 U/ml of penicillin, […] of streptomycin, and 10 ng/ml of IL‐3, while all Ba/F3 stable cell lines were cultured in the same medium without IL‐3.
(§2) Cells were seeded in 96‐well plate in complete medium (1000–6000 cells/well) and cultured for overnight. Then the cells were exposed to gradient concentrations (0.0005–10 μM) of compounds. Cell proliferation was analyzed by Cell Counting Kit 8 (CK04, Dojindo Laboratories, Japan) after co‐incubation for a further 72 h. IC50 values were calculated by fitting of concentration–response curves using GraphPad Prism 8.01 software. Each assay was repeated at least three times.
(§3) There is, however, no commercially available FGFR1 mutant kinase to validate this. Therefore, we constructed Ba/F3 model cells stably expressing FGFR1‐WT, K656E, K656N, V561M, and V561F mutations.

Ba/F3‐FGFR1‐K656N = experiment: CCK-8 proliferation assay in Ba/F3 stable cells; conditions: Mus musculus, read-out: IC50 (μΜ) Ba/F3‐FGFR1‐K656N
Method: as §1, §2, §3

Ba/F3‐FGFR1‐K656E = experiment: CCK-8 proliferation assay in Ba/F3 stable cells; conditions: Mus musculus
Method: as §1, §2, §3

Ba/F3‐FGFR1‐V561M = experiment: CCK-8 proliferation assay in Ba/F3 stable cells; conditions: Mus musculus
Method: as §1, §2, §3

RT112 = experiment: CCK-8 cell proliferation assay; conditions: Homo sapiens, RT-112; FGFR3‐TACC3; CCK-8, 72 h; read-out: antiproliferative IC50, RT112
Method: (§4) The base medium for MDA‐MB‐453 cell line is DMEM medium (CORNING, USA). All other cell lines were cultured in RPMI‐1640 medium supplemented with 10% FBS, 100 U/ml of penicillin, and […] of streptomycin in 5% CO2 at 37℃. The cells in the logarithmic growth phase were used for the experiments.
as §2
(§5) The expression and activation levels of FGFR1–4 in these cells were determined via western blot experiments (Figure S1).

KATOIII = experiment: CCK-8 cell proliferation assay; conditions: Homo sapiens, KATO III; FGFR2 amplification; CCK-8, 72 h; read-out: antiproliferative IC50, KATOIII
Method: as §4, §2, §5

SNU16 = experiment: CCK-8 cell proliferation assay; conditions: Homo sapiens, SNU-16; FGFR2 amplification; CCK-8, 72 h; read-out: antiproliferative IC50, SNU16
Method: as §4, §2, §5

NCI‐H716 = experiment: CCK-8 cell proliferation assay; conditions: Homo sapiens, NCI-H716; FGFR2 amplification; CCK-8, 72 h; read-out: antiproliferative IC50, NCI‐H716
Method: as §4, §2, §5

MDA‐MB‐231 = experiment: CCK-8 cell proliferation assay; conditions: CCK-8, 72 h
Method: as §4, §2, §5

MKN‐1 = experiment: CCK-8 cell proliferation assay; conditions: Homo sapiens, MKN-1; negative control; CCK-8, 72 h; read-out: antiproliferative IC50, MKN‐1
Method: as §4, §2, §5

H1581 = experiment: CCK-8 cell proliferation assay; conditions: Homo sapiens, NCI-H1581; FGFR1 amplification; CCK-8, 72 h; read-out: antiproliferative IC50, H1581
Method: as §4, §2, §5

MDA‐MB‐453 = experiment: CCK-8 cell proliferation assay; conditions: Homo sapiens, MDA-MB-453; FGFR4‐Y367C; CCK-8, 72 h; read-out: antiproliferative IC50, MDA‐MB‐453
Method: as §4, §2, §5

[2] = system: FGFR1 signal pathway in Ba/F3‐FGFR1‐V561F; experiment: Western blot of FGFR1 signal pathway
Method: Cells were treated with different concentrations of compound or DMSO for indicated time. Then, cells were lysed with 1 × SDS sample lysis buffer (recommended by CST). […] After blocking with 5% BSA in TBST solution (0.5% Tween‐20) at room temperature for 4 hrs, the membranes were incubated with the corresponding primary antibody (1:2000–1:200) at 4℃ overnight. After washing with TBST for 3–5 times, the HRP‐conjugated secondary antibodies were incubated for 2 hrs. The protein signals were detected with Amersham Imager 600 system (GE, Boston, MA, USA) using an ECL western blotting detection kit (Thermo Fisher Scientific, Waltham, MA, USA).
Cell lysates were separated by sodium dodecyl sulfate‐polyacrylamide gel electrophoresis (SDS‐PAGE) and analyzed by western blot for phosphorylated FGFR1, FGFR1, phosphorylated FRS2, FRS2, phosphorylated AKT (Ser473), AKT, phosphorylated Erk, and Erk. GAPDH was used as a control

Ba/F3‐FGFR1‐V561F [3] = experiment: Cell cycle analysis by flow cytometry (propidium iodide)
Method: About 6 × 10^5 cells were re‐suspended in 150 μl of BD Cytofix/Cytoperm buffer solution I for 10 min at room temperature. The cell suspensions were added with BD Cytofix/Cytoperm buffer solution II and incubated with another 10 min at room temperature, and then incubated with 200 μl of propidium iodide buffer (0.1 mg/ml) in the dark for 10 min at 4℃. Assays were performed with a Guava easyCyte flow cytometer (Merck, USA).

[4] = Homo sapiens, MDA-MB-231, 72 h, read-out: antiproliferative IC50, MDA‐MB‐231, negative control

IC50 (Ba/F3‐FGFR1; BaF3, CCK-8, 72 h): 31 ± 2.9 nM
IC50 (Ba/F3‐FGFR1‐K656N; BaF3, CCK-8, 72 h): 82 ± 5.5 nM
IC50 (Ba/F3‐FGFR1‐K656E; BaF3, CCK-8, 72 h, read-out: IC50 (μΜ) Ba/F3‐FGFR1‐K656E): 330 ± 2.9 nM
IC50 (Ba/F3‐FGFR1‐K656E; BaF3, bound stated, read-out: IC50 Ba/F3‐FGFR1‐K656E): > 330 nM
IC50 (Ba/F3‐FGFR1‐V561M; BaF3, CCK-8, 72 h, read-out: IC50 (μΜ) Ba/F3‐FGFR1‐V561M): 4380 ± 280 nM
IC50 (Ba/F3‐FGFR1‐V561M; BaF3, bound stated, read-out: IC50 Ba/F3‐FGFR1‐V561M): > 330 nM
IC50 (SNU16): 18.6 ± 6.3 nM
IC50 (MKN‐1): 5110 ± 481 nM
IC50 (H1581): 19.4 ± 2.5 nM
SMILES: CCN1CCN(c2ccc(Nc3cc(N(C)C(=O)Nc4c(Cl)c(OC)cc(OC)c4Cl)ncn3)cc2)CC1 [BGJ398]
effect on apoptosis (Ba/F3‐FGFR1‐V561F [1]; 1000 nM): weak effect
IC50 (RT112): 233 ± 76.7 nM
IC50 (KATOIII): 17.1 ± 2.4 nM
IC50 (NCI‐H716): 4.2 ± 0.8 nM
IC50 (MDA‐MB‐231; [4]): > 10000 nM
IC50 (MDA‐MB‐453): 2700 ± 104 nM
activation of FGFR1 and its signal pathway ([2]; 300 nM): no effects
effect on cell cycle (Ba/F3‐FGFR1‐V561F [3]; 1000 nM): weak effect

SMILES: Cc1ccc(C(=O)Nc2ccc(CN3CCN(C)CC3)c(C(F)(F)F)c2)cc1C#Cc1cnc2[nH]ncc2c1 [GZD824]
apoptosis (Ba/F3‐FGFR1‐V561F [1]; 100 nM, 48 h): 71.01%
IC50 (Ba/F3‐FGFR1; BaF3, 72 h): 8.1 ± 1.1 nM
IC50 (Ba/F3‐FGFR1‐K656N; BaF3, 72 h): 12 ± 2 nM
IC50 (Ba/F3‐FGFR1‐K656E; BaF3, 72 h, read-out: IC50 (μΜ) Ba/F3‐FGFR1‐K656E): 20.6 ± 0.8 nM
IC50 (Ba/F3‐FGFR1‐V561M; BaF3, 72 h, read-out: IC50 (μΜ) Ba/F3‐FGFR1‐V561M): 55 ± 3.7 nM
IC50 (RT112): 91 ± 5.7 nM
IC50 (KATOIII): 9.8 ± 1.2 nM
IC50 (SNU16): 14.4 ± 4.8 nM
IC50 (NCI‐H716): 4 ± 0.5 nM
IC50 (MDA‐MB‐231; [4]): > 1000 nM
IC50 (MDA‐MB‐231; read-out: antiproliferative IC50, MDA‐MB‐231, negative control): 2000 ± 782 nM
IC50 (MKN‐1): 743 ± 31.8 nM
IC50 (H1581): 10.8 ± 0.8 nM
IC50 (MDA‐MB‐453): 148 ± 104 nM
FGFR1 phosphorylation, downstream FRS2 and ERK1/2 ([2]; 4 h, 3.7 nM to 300 nM): dose‐dependent inhibition
G0/G1 phase (Ba/F3‐FGFR1‐V561F [3]; 100 nM, 24 h): 71.13%
